Experimental data taken from ChEMBL document CHEMBL5724806, “Unraveling interindividual differences and functional consequences of gut microbial metabolism of immunosuppressants” (2024).

Assays:
Assay type in all cases: ADME
[1] = (§1) The drug is tested on Lactobacillus gasseri strain: DSM20243 for biotransformation under anaerobic condition. The drug concentrations were measured over 6 timepoints collected between 0 and 12 hours of incubation by liquid-chromatography-coupled mass spectrometry (LC–MS); design: dose 5 uM, timepoint 0, 1.5, 3, 6, 9, 12 hours; settings: 5 µM
[2] = The drug is tested on Bacteroides thetaiotaomicron strain: DSM2079 for biotransformation under anaerobic condition. The drug concentrations were measured over 6 timepoints collected between 0 and 12 hours of incubation by liquid-chromatography-coupled mass spectrometry (LC–MS); design: dose 5 uM, timepoint 0, 1.5, 3, 6, 9, 12 hours; settings: 5 µM
[3] = (§2) The drug is tested on Lactobacillus reuteri strain: DSM20016 for biotransformation under microaerobic condition. The drug concentrations were measured over 6 timepoints collected between 0 and 12 hours of incubation by liquid-chromatography-coupled mass spectrometry (LC–MS); design: dose 5 uM, timepoint 0, 1.5, 3, 6, 9, 12 hours; settings: limosilactobacillus reuteri, 5 µM
[4] = as §2, with “the gut metagenome community of P-04 with ENA study accession number: PRJEB31790” for “Lactobacillus reuteri strain: DSM20016”, “7” for “6”; design: dose 5 uM, timepoint 0, 0.75, 1.5, 3, 6, 9, 12 hours; settings: 5 µM
[5] = as §2, with “the gut metagenome community of A-02 with ENA study accession number: PRJEB31790” for “Lactobacillus reuteri strain: DSM20016”, “7” for “6”; design: dose 5 uM, timepoint 0, 0.75, 1.5, 3, 6, 9, 12 hours; settings: 5 µM
[6] = as §1, with “the gut metagenome community of P-02 with ENA study accession number: PRJEB31790” for “Lactobacillus gasseri strain: DSM20243”, “7” for “6”; design: dose 5 uM, timepoint 0, 0.75, 1.5, 3, 6, 9, 12 hours; settings: 5 µM
[7] = The drug is tested on Bacteroides vulgatus strain: DSM1447 for biotransformation under anaerobic condition. The drug concentrations were measured over 6 timepoints collected between 0 and 12 hours of incubation by liquid-chromatography-coupled mass spectrometry (LC–MS); design: dose 5 uM, timepoint 0, 1.5, 3, 6, 9, 12 hours; settings: phocaeicola vulgatus, 5 µM
[8] = The drug is tested on Alloscardovia omnicolens strain: DSM21503 for biotransformation under anaerobic condition. The drug concentrations were measured over 6 timepoints collected between 0 and 12 hours of incubation by liquid-chromatography-coupled mass spectrometry (LC–MS); design: dose 5 uM, timepoint 0, 1.5, 3, 6, 9, 12 hours; settings: 5 µM
[9] = The drug is tested on Streptococcus sanguinis strain: DSM20567 for biotransformation under microaerobic condition. The drug concentrations were measured over 6 timepoints collected between 0 and 12 hours of incubation by liquid-chromatography-coupled mass spectrometry (LC–MS); design: dose 5 uM, timepoint 0, 1.5, 3, 6, 9, 12 hours; settings: 5 µM
[10] = as §1, with “the gut metagenome community of A-10 with ENA study accession number: PRJEB31790” for “Lactobacillus gasseri strain: DSM20243”, “7” for “6”; design: dose 5 uM, timepoint 0, 0.75, 1.5, 3, 6, 9, 12 hours; settings: 5 µM
[11] = as §1, with “the gut metagenome community of A-04 with ENA study accession number: PRJEB31790” for “Lactobacillus gasseri strain: DSM20243”, “7” for “6”; design: dose 5 uM, timepoint 0, 0.75, 1.5, 3, 6, 9, 12 hours; settings: 5 µM
[12] = The drug is tested on Lactobacillus reuteri strain: DSM20016 for biotransformation under anaerobic condition. The drug concentrations were measured over 6 timepoints collected between 0 and 12 hours of incubation by liquid-chromatography-coupled mass spectrometry (LC–MS); design: dose 5 uM, timepoint 0, 1.5, 3, 6, 9, 12 hours; settings: limosilactobacillus reuteri, 5 µM
[13] = The drug is tested on Clostridium ramosum strain: DSM1402 for biotransformation under anaerobic condition. The drug concentrations were measured over 6 timepoints collected between 0 and 12 hours of incubation by liquid-chromatography-coupled mass spectrometry (LC–MS); design: dose 5 uM, timepoint 0, 1.5, 3, 6, 9, 12 hours; settings: thomasclavelia ramosa, 5 µM
[14] = The drug is tested on Alloscardovia omnicolens strain: DSM21503 for biotransformation under microaerobic condition. The drug concentrations were measured over 6 timepoints collected between 0 and 12 hours of incubation by liquid-chromatography-coupled mass spectrometry (LC–MS); design: dose 5 uM, timepoint 0, 1.5, 3, 6, 9, 12 hours; settings: 5 µM
[15] = The drug is tested on Lactobacillus ruminis strain: ATCC25644 for biotransformation under anaerobic condition. The drug concentrations were measured over 6 timepoints collected between 0 and 12 hours of incubation by liquid-chromatography-coupled mass spectrometry (LC–MS); design: dose 5 uM, timepoint 0, 1.5, 3, 6, 9, 12 hours; settings: ligilactobacillus ruminis, 5 µM
[16] = as §1, with “the gut metagenome community of T-02 with ENA study accession number: PRJEB31790” for “Lactobacillus gasseri strain: DSM20243”, “7” for “6”; design: dose 5 uM, timepoint 0, 0.75, 1.5, 3, 6, 9, 12 hours; settings: 5 µM
[17] = The drug is tested on Streptococcus anginosus strain: DSM20563 for biotransformation under microaerobic condition. The drug concentrations were measured over 6 timepoints collected between 0 and 12 hours of incubation by liquid-chromatography-coupled mass spectrometry (LC–MS); design: dose 5 uM, timepoint 0, 1.5, 3, 6, 9, 12 hours; settings: 5 µM
[18] = The drug is tested on Escherichia coli strain: DSM27469 for biotransformation under anaerobic condition. The drug concentrations were measured over 6 timepoints collected between 0 and 12 hours of incubation by liquid-chromatography-coupled mass spectrometry (LC–MS); design: dose 5 uM, timepoint 0, 1.5, 3, 6, 9, 12 hours; settings: 5 µM
[19] = as §2, with “the gut metagenome community of A-01 with ENA study accession number: PRJEB31790” for “Lactobacillus reuteri strain: DSM20016”, “7” for “6”; design: dose 5 uM, timepoint 0, 0.75, 1.5, 3, 6, 9, 12 hours; settings: 5 µM
[20] = as §1, with “the gut metagenome community of P-03 with ENA study accession number: PRJEB31790” for “Lactobacillus gasseri strain: DSM20243”, “7” for “6”; design: dose 5 uM, timepoint 0, 0.75, 1.5, 3, 6, 9, 12 hours; settings: 5 µM
[21] = The drug is tested on Lactobacillus paracasei strain: ATCC27092 for biotransformation under anaerobic condition. The drug concentrations were measured over 6 timepoints collected between 0 and 12 hours of incubation by liquid-chromatography-coupled mass spectrometry (LC–MS); design: dose 5 uM, timepoint 0, 1.5, 3, 6, 9, 12 hours; settings: lacticaseibacillus paracasei, 5 µM
[22] = as §1, with “the gut metagenome community of P-01 with ENA study accession number: PRJEB31790” for “Lactobacillus gasseri strain: DSM20243”, “7” for “6”; design: dose 5 uM, timepoint 0, 0.75, 1.5, 3, 6, 9, 12 hours; settings: 5 µM
[23] = The drug is tested on Akkermansia muciniphila strain: DSM22959 for biotransformation under anaerobic condition. The drug concentrations were measured over 6 timepoints collected between 0 and 12 hours of incubation by liquid-chromatography-coupled mass spectrometry (LC–MS); design: dose 5 uM, timepoint 0, 1.5, 3, 6, 9, 12 hours; settings: 5 µM
[24] = as §2, with “the gut metagenome community of T-03 with ENA study accession number: PRJEB31790” for “Lactobacillus reuteri strain: DSM20016”, “7” for “6”; design: dose 5 uM, timepoint 0, 0.75, 1.5, 3, 6, 9, 12 hours; settings: 5 µM
[25] = as §2, with “the gut metagenome community of A-03 with ENA study accession number: PRJEB31790” for “Lactobacillus reuteri strain: DSM20016”, “7” for “6”; design: dose 5 uM, timepoint 0, 0.75, 1.5, 3, 6, 9, 12 hours; settings: 5 µM
[26] = The drug is tested on Lactobacillus fermentum strain: DSM20052 for biotransformation under anaerobic condition. The drug concentrations were measured over 6 timepoints collected between 0 and 12 hours of incubation by liquid-chromatography-coupled mass spectrometry (LC–MS); design: dose 5 uM, timepoint 0, 1.5, 3, 6, 9, 12 hours; settings: limosilactobacillus fermentum, 5 µM
[27] = The drug is tested on Clostridium scindens strain: DSM5676 for biotransformation under anaerobic condition. The drug concentrations were measured over 6 timepoints collected between 0 and 12 hours of incubation by liquid-chromatography-coupled mass spectrometry (LC–MS); design: dose 5 uM, timepoint 0, 1.5, 3, 6, 9, 12 hours; settings: 5 µM
[28] = as §1, with “the gut metagenome community of A-01 with ENA study accession number: PRJEB31790” for “Lactobacillus gasseri strain: DSM20243”, “7” for “6”; design: dose 5 uM, timepoint 0, 0.75, 1.5, 3, 6, 9, 12 hours; settings: 5 µM
[29] = The drug is tested on Gemella haemolysans strain: DSM107751 for biotransformation under anaerobic condition. The drug concentrations were measured over 6 timepoints collected between 0 and 12 hours of incubation by liquid-chromatography-coupled mass spectrometry (LC–MS); design: dose 5 uM, timepoint 0, 1.5, 3, 6, 9, 12 hours; settings: 5 µM
[30] = The drug is tested on Gemella morbillorum strain: DSM20572 for biotransformation under microaerobic condition. The drug concentrations were measured over 6 timepoints collected between 0 and 12 hours of incubation by liquid-chromatography-coupled mass spectrometry (LC–MS); design: dose 5 uM, timepoint 0, 1.5, 3, 6, 9, 12 hours; settings: 5 µM

Row | Bacterial Biotransformation [1] | Bacterial Biotransformation [2] | Bacterial Biotransformation [3] | Bacterial Biotransformation [4] | Bacterial Biotransformation [5] | Bacterial Biotransformation [6] | Bacterial Biotransformation [7] | Bacterial Biotransformation [8] | Bacterial Biotransformation [9] | Bacterial Biotransformation [10] | Bacterial Biotransformation [11] | Bacterial Biotransformation [12] | Bacterial Biotransformation [13] | Bacterial Biotransformation [14] | Bacterial Biotransformation [15] | Bacterial Biotransformation [16] | Bacterial Biotransformation [17] | Bacterial Biotransformation [18] | Bacterial Biotransformation [19] | Bacterial Biotransformation [20] | Compound | also measured
1 | Compound NOT metabolized | Compound NOT metabolized | Compound NOT metabolized | Compound NOT metabolized | Compound NOT metabolized | Compound NOT metabolized | Compound NOT metabolized | Compound NOT metabolized | Compound NOT metabolized | Compound NOT metabolized | Compound NOT metabolized | Compound NOT metabolized | Compound NOT metabolized | Compound NOT metabolized | Compound NOT metabolized | Compound NOT metabolized | Compound NOT metabolized | Compound NOT metabolized | Compound NOT metabolized | Compound NOT metabolized | CCOC(=O)[C@H](CCc1ccccc1)N[C@@H](C)C(=O)N1[C@H](C(=O)O)C[C@@H]2CCC[C@@H]21 | Bacterial Biotransformation [21]: Compound NOT metabolized; Bacterial Biotransformation [22]: Compound NOT metabolized; Bacterial Biotransformation [23]: Compound NOT metabolized; Bacterial Biotransformation [24]: Compound NOT metabolized; Bacterial Biotransformation [25]: Compound NOT metabolized; Bacterial Biotransformation [26]: Compound metabolized; Bacterial Biotransformation [27]: Compound NOT metabolized; Bacterial Biotransformation [28]: Compound NOT metabolized; Bacterial Biotransformation [29]: Compound NOT metabolized; Bacterial Biotransformation [30]: Compound NOT metabolized
2 | Compound NOT metabolized | Compound NOT metabolized | Compound NOT metabolized | Compound NOT metabolized | Compound NOT metabolized | Compound NOT metabolized | Compound NOT metabolized | Compound NOT metabolized | Compound NOT metabolized | Compound NOT metabolized | Compound NOT metabolized | Compound NOT metabolized | Compound NOT metabolized | Compound NOT metabolized | Compound NOT metabolized | Compound NOT metabolized | Compound NOT metabolized | Compound NOT metabolized | Compound NOT metabolized | Compound NOT metabolized | CC(C)NCC(O)COc1ccc(CC(N)=O)cc1 (stereo not given) [ATENOLOL] | Bacterial Biotransformation [21]: Compound NOT metabolized; Bacterial Biotransformation [22]: Compound NOT metabolized; Bacterial Biotransformation [23]: Compound NOT metabolized; Bacterial Biotransformation [24]: Compound NOT metabolized; Bacterial Biotransformation [25]: Compound NOT metabolized; Bacterial Biotransformation [26]: Compound NOT metabolized; Bacterial Biotransformation [27]: Compound NOT metabolized; Bacterial Biotransformation [28]: Compound NOT metabolized; Bacterial Biotransformation [29]: Compound NOT metabolized; Bacterial Biotransformation [30]: Compound NOT metabolized
3 | Compound NOT metabolized | Compound metabolized | Compound metabolized | Compound NOT metabolized | Compound metabolized | Compound NOT metabolized | Compound metabolized | Compound metabolized | Compound NOT metabolized | Compound NOT metabolized | Compound metabolized | Compound NOT metabolized | Compound metabolized | Compound NOT metabolized | Compound NOT metabolized | Compound NOT metabolized | Compound metabolized | Compound metabolized | Compound NOT metabolized | Compound NOT metabolized | Cn1cnc([N+](=O)[O-])c1Sc1ncnc2nc[nH]c12 [AZATHIOPRINE] | Bacterial Biotransformation [21]: Compound metabolized; Bacterial Biotransformation [22]: Compound metabolized; Bacterial Biotransformation [23]: Compound metabolized; Bacterial Biotransformation [24]: Compound metabolized; Bacterial Biotransformation [25]: Compound metabolized; Bacterial Biotransformation [26]: Compound metabolized; Bacterial Biotransformation [27]: Compound metabolized; Bacterial Biotransformation [28]: Compound NOT metabolized; Bacterial Biotransformation [29]: Compound NOT metabolized; Bacterial Biotransformation [30]: Compound NOT metabolized
